Test systems include SF-539 CNS; SK-MEL-28 melanoma; OVCAR-5 ovarian; HCT-116 colon; UACC-257 melanoma; UACC-62 melanoma; NCI-H522 lung; SF-295 CNS; HL-60(TB) leukemia; COLO 205 colon; SK-OV-3 ovarian; NCI-H23 lung; HOP-62 NSCLC; SR leukemia; M14 melanoma; PC-3 prostate; MDA-N; MDA-MB-435; HS 578T breast.
Common to all, as to assay: growth of human tumour cells (NCI), 48 h

SMILES strings stand for the structures.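 96-well plates; 48 h exposure; 5 concentrations. Endpoints by linear interpolation between flanking doses. Not reached: highest tested concentration assigned. TGI: total growth inhibition.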 Where a SMILES comes first, the peptide text is derived from it. The star is where a group is joined. Boc = CC(C)(C)OC(=O)*; OBn = c1ccc(CO*)cc1

`O=C1c2ccccc2C(O)(C(=O)O)C1(O)CC=C(Cl)Cl` (stereo not drawn): the TGI with SF-539 CNS, with SK-MEL-28 melanoma, with OVCAR-5 ovarian, in the assay on HCT-116 colon, in the assay with UACC-257 melanoma and in the assay with UACC-62 melanoma was over 125 µM throughout. For the same compound, the TGI with NCI-H522 lung, in the assay on SF-295 CNS, in the assay with HL-60(TB) leukemia, in the assay on COLO 205 colon, in the assay on SK-OV-3 ovarian and in the assay with NCI-H23 lung was over 125 µM throughout. In the assay with HOP-62 NSCLC, this compound returned a TGI of over 125 µM.
For `Ic1ncnc2c1ncn2C1CCCO1` (stereo not drawn), the TGI in the assay with SF-539 CNS, in the assay on SK-MEL-28 melanoma, with OVCAR-5 ovarian, in the assay with HCT-116 colon, in the assay on SR leukemia and in the assay on UACC-257 melanoma was over 100 µM throughout. The TGI with UACC-62 melanoma, with NCI-H522 lung, in the assay with SF-295 CNS, in the assay with HL-60(TB) leukemia, in the assay on COLO 205 colon and in the assay on SK-OV-3 ovarian was over 100 µM each time. For the same compound, the TGI in the assay on NCI-H23 lung, with HOP-62 NSCLC and in the assay on M14 melanoma was over 100 µM each time.
Regarding `COc1ccc2c(c1)/C(=C\c1c(C)nc3n1CCS3)C(=O)N2`, the TGI was 54.7 µM in the assay on SF-539 CNS; 55.2 µM with PC-3 prostate; over 100 µM in the assay with SK-MEL-28 melanoma; 13.6 µM in the assay on MDA-N; over 100 µM with OVCAR-5 ovarian; over 100 µM with HCT-116 colon. The TGI was 11.5 µM in the assay on MDA-MB-435; over 100 µM with SR leukemia; over 100 µM with UACC-257 melanoma; over 100 µM with UACC-62 melanoma; 98.9 µM with SF-295 CNS; 66.8 µM with HL-60(TB) leukemia. The TGI in the assay with COLO 205 colon is 41.9 µM; with SK-OV-3 ovarian, 63.3 µM; in the assay with NCI-H23 lung it was over 100 µM; with HOP-62 NSCLC, over 100 µM; in the assay on M14 melanoma, 93.7 µM.
As for `N=c1oc2ccc([N+](=O)[O-])cc2cc1C(=O)NCc1ccccc1`, the TGI with SF-539 CNS stood at 33.3 µM; with PC-3 prostate, 40.3 µM; in the assay with SK-MEL-28 melanoma it was 35.8 µM; with OVCAR-5 ovarian it was 96 µM; in the assay with HCT-116 colon it was 32 µM; in the assay on MDA-MB-435, 49.3 µM. For the same compound, the TGI is 42.9 µM in the assay with HS 578T breast; over 100 µM in the assay with SR leukemia; 38.2 µM with UACC-257 melanoma; 42.9 µM in the assay on UACC-62 melanoma; 25.8 µM in the assay on NCI-H522 lung; over 100 µM in the assay with SF-295 CNS. Besides, the TGI in the assay with HL-60(TB) leukemia was over 100 µM; in the assay with COLO 205 colon, 40.5 µM; in the assay with SK-OV-3 ovarian, over 100 µM; in the assay on HOP-62 NSCLC it was over 100 µM; in the assay on M14 melanoma, 61.3 µM.
On to `C/C1=C/C(C)CC(C)OC(=O)C(C)NC(=O)C(Cc2ccc(O)c(I)c2)N(C)C(=O)CNC(=O)C(C)C1` (stereo not drawn), for which the TGI in the assay on SF-539 CNS is 4.94 µM; in the assay with MDA-N it was over 100 µM; with OVCAR-5 ovarian, over 100 µM; in the assay on HCT-116 colon it was over 100 µM; with MDA-MB-435, 16.6 µM; in the assay on HS 578T breast, 0.723 µM. For the same compound, the TGI in the assay with UACC-257 melanoma is 5.97 µM; in the assay with UACC-62 melanoma, over 20.9 µM; in the assay with SF-295 CNS, 1.73 µM; in the assay on HL-60(TB) leukemia it was under 0.01 µM; with COLO 205 colon, over 100 µM; in the assay on SK-OV-3 ovarian, 2.16 µM. Also, the TGI is over 100 µM in the assay with NCI-H23 lung, under 0.01 µM in the assay with HOP-62 NSCLC and over 100 µM with M14 melanoma.
Turning to `CCOC(=O)CCC(NC(=O)c1ccc(CNc2nc3ccccc3nc2C(=O)OCC)cc1)C(=O)OCC` (stereo not drawn), the TGI in the assay with PC-3 prostate was over 100 µM; with SK-MEL-28 melanoma it was over 100 µM; with MDA-N, over 100 µM; with OVCAR-5 ovarian, over 100 µM; in the assay with HCT-116 colon, over 100 µM; in the assay on MDA-MB-435 it was 50.3 µM. The TGI in the assay with HS 578T breast, with UACC-62 melanoma, in the assay with NCI-H522 lung, in the assay with SF-295 CNS, in the assay with COLO 205 colon and in the assay on SK-OV-3 ovarian was over 100 µM each time. Moreover, the TGI in the assay on NCI-H23 lung, in the assay with HOP-62 NSCLC and in the assay on M14 melanoma was over 100 µM in each case.
Regarding `CC(C)C(NC(=O)C(Cc1ccccc1)NC(=O)OC(C)(C)C)C(=O)NCC(=O)OCc1ccccc1` (stereo not drawn) (Boc-Phe-Val-Gly-OBn; configuration not given here), the TGI with SF-539 CNS is 43.3 µM; in the assay on PC-3 prostate it was 29.5 µM; in the assay on SK-MEL-28 melanoma, 30.5 µM; with MDA-N, 33.5 µM; in the assay with OVCAR-5 ovarian, 28.7 µM; in the assay with HCT-116 colon, 40 µM. Also, the TGI in the assay on MDA-MB-435 was 21.9 µM; in the assay with UACC-257 melanoma, 41.9 µM; in the assay with UACC-62 melanoma it was 30.9 µM; in the assay on NCI-H522 lung, 20.1 µM; in the assay on SF-295 CNS, 34.6 µM; in the assay on HL-60(TB) leukemia, 34.4 µM. Also, the TGI with COLO 205 colon was found to be 35.5 µM; with SK-OV-3 ovarian, 28 µM; in the assay with NCI-H23 lung, 36.1 µM; in the assay with HOP-62 NSCLC it was 35.6 µM; in the assay on M14 melanoma it was 36.5 µM.
Consider `COC(=O)C(C)NP(=O)(N1CC1)N1CC1` (stereo not drawn), for which the TGI with SF-539 CNS, with SK-MEL-28 melanoma, in the assay on OVCAR-5 ovarian, in the assay with UACC-257 melanoma, in the assay on UACC-62 melanoma and with NCI-H522 lung was over 100 µM throughout. Also, the TGI in the assay with SF-295 CNS, in the assay with HL-60(TB) leukemia, with COLO 205 colon, in the assay with SK-OV-3 ovarian, in the assay on NCI-H23 lung and in the assay with M14 melanoma was over 100 µM throughout.
For the compound `O=[n+]1c2ccccc2n([O-])c2ccccc21`, the TGI with SF-539 CNS, in the assay on PC-3 prostate, in the assay with SK-MEL-28 melanoma, with OVCAR-5 ovarian, in the assay on HCT-116 colon and with MDA-MB-435 was over 100 µM each time. The TGI in the assay on HS 578T breast, with SR leukemia, in the assay on UACC-257 melanoma, in the assay with UACC-62 melanoma, with NCI-H522 lung and in the assay with SF-295 CNS was over 100 µM in each case. Also, the TGI is 72.4 µM in the assay on HL-60(TB) leukemia; over 100 µM in the assay with COLO 205 colon; over 100 µM in the assay on NCI-H23 lung; over 100 µM in the assay on HOP-62 NSCLC; over 100 µM in the assay with M14 melanoma.
